Source: patent US6835382B2, “Ii peptide therapeutics to enhance antigen presentation” (University of Massachusetts, priority 1996, dated 2004)
Non-standard residues stand in square brackets, D forms with d. Orn = NCCC[C@H](N)C(=O)O

Tested on: murine E^k MHC class II allele
Assay: antigenic peptide prepulse assay, E^k allele (fixed APC prepulsed with PGCC81-104)
Format: cell-based
Settings: for Activity in antigenic peptide prepulse assay, E^k (baseline = 1.0): Table 26, prepulse 1.25 μM antigenic peptide
Description: In a second type of assay, the “peptide prepulse assay”, the antigenic peptide is incubated with paraformaldehyde-fixed APC for 6 h. The APC are washed and incubated for 24 h with the AE101 series homolog and the T cell hybridoma specific for the antigenic peptide. After that incubation, an aliquot of the culture supernatant is transferred to a second culture to measure the relative degree of T hybridoma stimulation, as reflected in the effect of released interleukins on the growth of an interleukin-dependent, indicator cell line, as described above.
The two above described assays measure different aspects of the molecular mechanism of the AE101 series of peptides. In the “simultaneous assay”, AE101 series peptides are thought to induce the release of endogenously bound peptides and to permit the binding of the second, specific antigenic peptide which is relatively abundant in the culture fluid. The AE101 series peptides enhance antigenic peptide-specific T cell responses in simultaneous assays. In the “peptide prepulse” assay, the specific antigenic peptide becomes bound to MHC class II molecules on the surface of the fixed APC during the 6 h prepulse incubation. The effect of the AE101 series homologs is then thought to release that antigenic peptide, resulting in an apparent suppression of the immune response.
The AE101 series peptides are thought to contact the MHC class II molecules at a discrete site outside the antigenic peptide-binding groove. AE101 peptide binding to this “Ii-KEY” site is thought to induce a conformational change in the MHC class II molecules accelerating the dissociation of previously bound antigenic peptide. […] The AE101 series peptides thus inhibit antigenic peptide-specific T cell responses in the “peptide prepulse” assays.
Antigenic peptide-specific T cell activation was measured by the following procedure. Mitomycin C-treated A20 cells (A^dE^d) or CH27 cells APC (A^kE^k) were generated by incubating 5×10^6 cells/mL for 20 min at 37° C. with 0.025 mg/mL of mitomycin C (Sigma) in Dulbecco's Modified Eaglel's Medium (DMEM)/10 mM N-2(hydroxyethylpiperazine-N″[2-ethanesulfonic acid] (HEPES), followed by two washes with four volumes of DMEM-5% fetal calf serum (FCS), 10 mM HEPES. Fixed APC were generated by treating 1×10^6 cells/mL for 5 min with 0.5% paraformaldehyde in PBS (pH 7.2), followed by two washes with four volumes of DMEM-10% FCS, 10 mM HEPES. T cell hybridomas were irradiated 2200 rads before each assay.
The “peptide prepulse assay” was carried out under essentially the same conditions as described for the “simultaneous assay” with the following modifications. Fixed APC were first incubated for 6 h at 1×10^6 cells/mL in complete DMEM-5% FCS in 24-well microculture plates (1 mL/well) with antigenic peptide, followed by four washes with 10 volumes of DMEM-5% FCS. The cells were then exposed to varying concentrations of AE101 series peptide (64 μM, 16 μM, 4 μM, and 1 μM) for 24 h in the presence of the T cell hybridoma specific to the antigenic peptide. Interleukin release from these cultures was measured by proliferation of HT-2 cells to interleukins in supernatants transferred from the primary culture. Generally, a single dose of 64 μM of each AE101 series peptide was used. The baseline T cell response was measured by culturing T hybridoma cells with the antigenic peptide-prepulsed APC in the absence of AE101 series peptides.
Table 19: Activities of C-terminal truncation analogs of AE101 in an antigenic peptide prepulse assay. […] Paraformaldehyde-treated APC (fixed APC) expressing MHC class II molecules were incubated with antigenic peptide for 6 h (HEL106-116 for E^d and PGCC81-104 for E^k). After this incubation, the prepulsed APC were washed and cultured with T hybridoma cells and AE101 series peptides. The antigenic peptide concentration during the prepulse was 12 μM for Ed and 20 μM for E^k. The AE101 series peptide concentrations were 64 μM for E^d and 16 μM for E^k. […]

[1] = Table 24, AE peptide 64 μM, prepulse 0.625 μM antigenic peptide, supernatant 1:8
[2] = Table 25, AE peptide 64 μM, prepulse 2.5 μM antigenic peptide, supernatant 1:10
[3] = AE peptide 64 μM, supernatant 1:8
[4] = Table 20, AE peptide 16 μM, prepulse 20 μM antigenic peptide, supernatant 1:2
[5] = Table 22, AE peptide 16 μM, prepulse 20 μM antigenic peptide, supernatant 1:2

With Ac-LR (mL) KLPK-NH2 [AE302] the “Activity in antigenic peptide prepulse assay, E^k (baseline = 1.00)” value (“Activity … (baseline = 1.00)” below) [1] was 0.85.

Ac-LRLKYPK-NH2 [AE301] was tested, and the “Activity … (baseline = 1.00)” value [1] was 0.80, the “Activity … (baseline = 1.00)” value [2] was 0.86 and the “Activity in antigenic peptide prepulse assay, E^k (baseline = 1.0)” value (from here on “Activity … (baseline = 1.0)”) [3] was 0.99.

For “Ac-LR L KLPK-NH2 (Ac-LRLKLPK-NH2; not fully specified; printed as Ac-LR L KLPK-NH2) [AE206]”, the “Activity … (baseline = 1.00)” value [1] was 1.00, the “Activity … (baseline = 1.00)” value [2] was 0.68 and the “Activity … (baseline = 1.0)” value [3] was 0.96.

With Ac-Y L MKLPKSAK-NH2 [AE142] the “Activity … (baseline = 1.00)” value [4] was 0.46.

For Ac-LRLKWPK-NH2 [AE309], the “Activity … (baseline = 1.00)” value [1] was 0.81, the “Activity … (baseline = 1.00)” value [2] was 0.93 and the “Activity … (baseline = 1.0)” value [3] was 0.98.

Ac-LRM k LPK-NH2 [AE163] was tested, and the “Activity … (baseline = 1.00)” value [5] was 0.99.

For Ac-LR (mL) KyPk-NH2 [AE306], the “Activity … (baseline = 1.00)” value [1] was 1.00.

In the case of Ac-Y[Orn]MKLPKSAK-NH2 [AE130], the “Activity … (baseline = 1.00)” value [4] is reported as 0.66.

For Ac-Y D MKLPKSAK-NH2 [AE135], the “Activity … (baseline = 1.00)” value [4] was 0.95.

For Ac-LRLKyPK-NH2 [AE308], the “Activity … (baseline = 1.00)” value [1] was 0.63.

With Ac-Y E MKLPKSAK-NH2 [AE136] the “Activity … (baseline = 1.00)” value [4] was 0.97.

For Ac-Y F MKLPKSAK-NH2 [AE139], the “Activity … (baseline = 1.00)” value [4] was 0.38.

Ac-l RMKLPK-NH2 [AE160] was tested, and the “Activity … (baseline = 1.00)” value [5] was 0.47.

With “Ac-LRMK N PK-NH2 (Ac-LRMKNPK-NH2) [AE232]” the “Activity … (baseline = 1.00)” value [2] was 0.92.
